Measured values as given in patent US11427783B2, “Perfuming compositions” (Firmenich SA, priority 2016, dated 2022).
Where “and” joins values, the source holds several entries; their conditions need not be identical. Equal entries are not always repeated. Where two headings read alike, the source gives them in different places.

Tests used:
[1] = Volatility of perfuming compounds in air; assay type: physicochemical
[2] = Log P (n-octanol/water) of perfuming compounds
[3] = Table 5, perfuming compounds having a green note
[4] = Table 6, perfuming compounds having a fruity note
[5] = Table 10, perfuming compounds having a woody note
[6] = n-octanol/water, perfuming compounds having a fruity note (Table 6)
[7] = perfuming compounds having a fruity note (Table 6)
[8] = Table 9, perfuming compounds having a gourmand note
[9] = Table 8, perfuming compounds having a sweet note

CC(CO)c1ccccc1 (racemic) [(+−)-2-phenyl-1-propanol]
logP (physchem; n-octanol/water): 1.74
Volatility [1, 3]: 142.19 μg/l air

CC(=O)OC/C=C(/C)CCC=C(C)C [(2Z)-3,7-dimethyl-2,6-octadien-1-yl acetate]
Log P (n-octanol/water) [2, 4]: 3.81
logP (physchem; n-octanol/water): 3.81

CC/C=C\C[C@H]1C(=O)CC[C@@H]1CC(=O)OC (racemic)
logP (physchem; n-octanol/water): 2.33
Volatility (μg/l air) [1, 4]: 1.59 μg/l air

CCCCCCOC(=O)c1ccccc1O [HEXYL 2-HYDROXYBENZOATE]
Log P (n-octanol/water) [2, 4]: 5.55
Log P (n-octanol/water) ([2]; Table 7, citrus note): 5.55
logP (physchem; n-octanol/water): 5.55

O=C1CCCCCCC/C=C/CCCCCCO1 [(10E)-oxacycloheptadec-10-en-2-one]
Log P (n-octanol/water) ([2]; Table 7, citrus note): 6.15
logP (physchem; n-octanol/water): 6.15

CCCCCCC(=O)OCC [ethyl heptanoate]
logP (physchem; n-octanol/water): 3.58

CC1CCC2(O1)C(C)(C)CCCC2(C)O (racemic)
Log P (n-octanol/water) [2, 5]: 3.51
Volatility (μg/l air) [1, 5]: 84.04 μg/l air

CCCCCC1(C)CCC(C)(C)C1=O (racemic)
logP (physchem; n-octanol/water): 4.63

CCCCC/C(C=O)=C\c1ccccc1 [(E)-2-PENTYL-3-PHENYL-2-PROPENAL]
Log P (n-octanol/water) ([2]; Table 7, citrus note): 4.30
logP (physchem; n-octanol/water): 4.3

CCCC(O)CC[C@@H]1[C@@H](C)CCCC1(C)C (mixture of isomers)
logP (physchem; n-octanol/water): 5.42
Volatility (μg/l air) [1, 5]: 2.34 μg/l air

CC/C=C\CCCCCO [(Z)-6-NONEN-1-OL]
logP (physchem): 3.44
logP (physchem; n-octanol/water): 3.44
Volatility ([1]; Table 4, watery note): 6.91 μg/l air
Volatility [1, 3]: 6.91 μg/l air

CCC(=O)O[C@H]1C[C@@H]2CC[C@@]1(C)C2(C)C
logP (physchem; n-octanol/water): 4.66
Volatility (μg/l air) [1, 5]: 216.42 μg/l air

CC(=O)OCC=C(C)CCC=C(C)C (mixture of isomers) [GERANYL ACETATE (A) + NERYL ACETATE (B)]
Log P (n-octanol/water) [2, 3]: 3.99
Volatility [1, 3]: 85.23 μg/l air

CCOC(C)OC1CCCCCCCCCCC1 (racemic) [(+−)-(1-ethoxyethoxy)cyclododecane]
logP (physchem; n-octanol/water): 6.68
Volatility (μg/l air) [1, 5]: 5.04 μg/l air

C=CC(O)CCCCC (racemic) [(+−)-1-octen-3-ol]
logP (physchem; n-octanol/water): 2.33
Volatility [1, 3]: 3030.11 μg/l air

CCCC(C)=CCOC(C)=O (mixture of isomers)
Log P (n-octanol/water) [2, 3]: 3.11
Log P (n-octanol/water) [2, 6]: 3.11
Volatility [1, 3]: 4131.05 μg/l air
Volatility [1, 7]: 4131.05 μg/l air

CCOC(=O)C(C)C [ETHYL ISOBUTYRATE]
logP (physchem; n-octanol/water): 2.03

CC(C)(C)C1CCC(=O)CC1 [4-(2-methyl-2-propanyl)cyclohexanone]
logP (physchem; n-octanol/water): 2.77
Volatility (μg/l air) [1, 5]: 755.28 μg/l air

O=Cc1ccc2c(c1)OCO2 [benzo[d][1,3]dioxole-5-carbaldehyde]
logP (physchem): 1.52
Volatility (μg/l air) [1, 8]: 61.82 μg/l air

CC(C)[C@@H]1CC[C@@H](C)CC1=NO
logP (physchem; n-octanol/water): 2.81
Volatility [1, 3]: 22.29 μg/l air

CC(=O)C=CC1C(C)CCC(C)C1(C)C (racemic)
Log P (n-octanol/water) [2, 5]: 4.62
Volatility (μg/l air) [1, 5]: 20.50 μg/l air

CCCCCCCCC1CCC(=O)O1 (racemic) [(+−)-5-octyldihydro-2(3H)-furanone]
logP (physchem; n-octanol/water): 3.82
Volatility (μg/l air) [1, 4]: 1.44 μg/l air

O=C1CCCCCCCCCCC(=O)OCCO1 [1,4-dioxacyclohexadecane-5,16-dione]
logP (physchem; n-octanol/water): 3.83
Volatility (μg/l air) [1, 9]: 0.46 μg/l air

COC(C)(C)[C@H]1CC=C(C)CC1
logP (physchem; n-octanol/water): 4.59
Volatility [1, 3]: 993.39 μg/l air

CC(=O)O[C@@H]1C(C)(C)CCC[C@]12CC=C(C)C[C@H]2C (racemic)
logP (physchem; n-octanol/water): 6.44
Volatility (μg/l air) [1, 5]: 8.25 μg/l air

CC/C=C\CCOC(=O)c1ccccc1O [(3Z)-3-hexen-1-yl salicylate]
logP (physchem; n-octanol/water): 4.83
Volatility [1, 3]: 4.34 μg/l air

COC(=O)C=C1CCCC1 [methyl cyclopentylideneacetate]
logP (physchem; n-octanol/water): 2.02

CC(=O)/C=C/C1=C(C)CCCC1(C)C [(3E)-4-(2,6,6-trimethyl-1-cyclohexen-1-yl)-3-buten-2-one]
logP (physchem; n-octanol/water): 3.88
Volatility (μg/l air) [1, 5]: 35.41 μg/l air

C/C=C/c1ccc(OC)cc1 [1-methoxy-4-[(1E)-1-propen-1-yl]benzene]
logP (physchem): 3.58
Volatility (μg/l air) [1, 9]: 184.60 μg/l air
Volatility (μg/l air) [1, 8]: 184.60 μg/l air

(2,2-DIMETHOXYETHYL)BENZENE
Log P (n-octanol/water) [2, 3]: 2.10
Volatility [1, 3]: 456.97 μg/l air

C[C@@H]1CC[C@H]2[C@H](C)C(=O)O[C@@H]2C1
logP (physchem; n-octanol/water): 2.11
Volatility (μg/l air) [1, 8]: 74.03 μg/l air

CC(=O)OC1CCC2C(C)(C)CCCC2(C)C1 (centres unmarked) [5,5,8a-trimethyldecahydro-2-naphthalenyl acetate]
logP (physchem; n-octanol/water): 5.5
Volatility (μg/l air) [1, 5]: 14.41 μg/l air

CC/C(=C\C[C@H]1CC=C(C)C1(C)C)CO
logP (physchem; n-octanol/water): 4.44
Volatility (μg/l air) [1, 5]: 2.75 μg/l air

CCCCCCC=O [HEPTANAL]
logP (physchem; n-octanol/water): 2.15
Volatility [1, 3]: 22184.00 μg/l air

CC1COCc2cc3c(cc21)C(C)(C)C(C)C3(C)C (racemic)
logP (physchem): 6.57
Volatility (μg/l air) [1, 4]: 1.59 μg/l air

C=CCOC(=O)CCCCC [ALLYL HEXANOATE]
logP (physchem; n-octanol/water): 3.62

C=CC1(C)CCCC(C)(C)O1 (racemic)
logP (physchem; n-octanol/water): 3.59
Volatility [1, 3]: 23116.66 μg/l air

CCCCCCCC=O [OCTANAL]
logP (physchem; n-octanol/water): 2.94
Volatility [1, 3]: 4147.61 μg/l air

CC(=O)OCc1ccccc1 [benzyl acetate]
logP (physchem; n-octanol/water): 2.04

CC1(C)CC=C(CCC=O)CC1
logP (physchem; n-octanol/water): 3.3
Volatility [1, 3]: 417.92 μg/l air

CCOC(=O)c1ccccc1 [ETHYL BENZOATE]
logP (physchem): 2.51

CCOC(=O)Cc1ccccc1 [ETHYL PHENYLACETATE]
logP (physchem): 2.1

CCCCCCCC(=O)OCC [ethyl octanoate]
logP (physchem; n-octanol/water): 4.2
Volatility [1, 3]: 800.05 μg/l air

CC1(C)[C@@H]2CC[C@@]1(C)C(=O)C2
Log P (n-octanol/water) [2, 6]: 2.50
Volatility [1, 7]: 555.04 μg/l air

CC1=CCC(CCC(C)C(C)O)C1(C)C (racemic)
logP (physchem; n-octanol/water): 4.68
Volatility (μg/l air) [1, 5]: 5.22 μg/l air

O=C1CCC2(CCCCC2)O1 [1-oxaspiro[4.5]decan-2-one]
logP (physchem; n-octanol/water): 1.66
Volatility (μg/l air) [1, 8]: 62.86 μg/l air

C=C1CCCC(C)(C)C1C(=O)OC (racemic)
logP (physchem; n-octanol/water): 3.93

CCOC(=O)/C(C)=C/C(C)C [ethyl (2E)-2,4-dimethyl-2-pentenoate]
logP (physchem; n-octanol/water): 3.35

CCCCSCCCC [DIBUTYL SULFIDE]
logP (physchem; n-octanol/water): 4.86
Volatility [1, 3]: 2766.10 μg/l air

CC(=O)O[C@@H]1CC[C@@H]2C(C)(C)CCC[C@@]2(C)C1 (racemic)
logP (physchem; n-octanol/water): 5.5
Volatility (μg/l air) [1, 5]: 14.41 μg/l air

CCCCCC1C(=O)CCC1CC(=O)OC (single isomer, unassigned; (+))
Log P (n-octanol/water) [2, 5]: 2.95
Volatility (μg/l air) [1, 5]: 1.71 μg/l air

CC/C=C\CCOC(C)=O [(Z)-3-HEXENYL ACETATE]
Volatility [1, 3]: 3398.34 μg/l air

CCCCCCC1CCC(=O)O1 (racemic) [(+−)-4-DECANOLIDE]
Volatility (μg/l air) [1, 4]: 10.49 μg/l air
Volatility (μg/l air) [1, 9]: 10.49 μg/l air
Volatility (μg/l air) [1, 8]: 10.49 μg/l air

OCCc1ccccc1 [2-PHENYLETHANOL]
Volatility (μg/l air) [1, 9]: 159.75 μg/l air
Volatility (μg/l air) [1, 8]: 159.75 μg/l air

CCOC(C)=O [ETHYL ACETATE]
logP (physchem): 0.8

CC1CCC2C(C)(C)C3CC12CCC3(C)O (racemic)
logP (physchem): 5.39
Volatility (μg/l air) [1, 5]: 11.83 μg/l air

CC=CC(=O)C(C)CC (centres unmarked) [5-METHYL-2-HEPTEN-4-ONE]
Volatility (μg/l air) [1, 9]: 5525.83 μg/l air

O=c1ccc2ccccc2o1 [2-CHROMENONE]
Volatility (μg/l air) [1, 9]: 0.51 μg/l air
Volatility (μg/l air) [1, 8]: 0.51 μg/l air

COc1ccc(CCC(C)=O)cc1 [4-(4-METHOXYPHENYL)-2-BUTANONE]
Volatility (μg/l air) [1, 4]: 5.58 μg/l air
Volatility (μg/l air) [1, 9]: 5.58 μg/l air
Volatility (μg/l air) [1, 8]: 5.58 μg/l air

CC(=O)O[C@@H]1CC2CC[C@]1(C)C2(C)C
Volatility (μg/l air) [1, 5]: 735.37 μg/l air

CCC(C)c1nccnc1OC (centres unmarked) [PYRAZOBUTYLE]
Log P (n-octanol/water) [2, 3]: 2.88
Volatility [1, 3]: 1617.21 μg/l air

CCCCCCCCCCO [1-DECANOL]
Volatility [1, 3]: 31.90 μg/l air

CCC(C)(O)CCCC(C)C (racemic)
Volatility [1, 3]: 421.15 μg/l air

CCOc1cc(C=O)ccc1O [3-ethoxy-4-hydroxybenzaldehyde]
logP (physchem): 1.27
Volatility (μg/l air) [1, 9]: 0.11 μg/l air

CC(=O)c1ccccc1 [1-phenylethanone]
Volatility (μg/l air) [1, 9]: 1728.98 μg/l air

CCCC(S)CCOC (racemic) [(+−)-1-METHOXY-3-HEXANETHIOL]
Volatility [1, 3]: 2534.77 μg/l air

CC1=CC[C@H](C(C)CC2CCCC2=O)CC1 (some centres unmarked)
Volatility (μg/l air) [1, 4]: 2.05 μg/l air
Volatility (μg/l air) [1, 9]: 2.05 μg/l air
Volatility (μg/l air) [1, 8]: 2.05 μg/l air

CCC(=O)OCC(C)(C)OC(C)C1CCCC(C)(C)C1 (single isomer, unassigned; (+))
Volatility (μg/l air) [1, 4]: 4.39 μg/l air

CC1=CCC(C(C)(C)O)CC1 (racemic) [(+−)-ALPHA-TERPINEOL]
Volatility (μg/l air) [1, 5]: 172.78 μg/l air

COc1nccnc1CCCC(C)C
Volatility [1, 3]: 195.24 μg/l air

COC1(C)CCC23CC1C(C)(C)C2CCC3C (racemic) [(+−)-8-methoxycedrane]
Log P (n-octanol/water) [2, 5]: 7.59
Volatility (μg/l air) [1, 5]: 42.22 μg/l air

CC1(C)C2C[C@H]3CCC(=O)C=C3[C@@H]1C2
Log P (n-octanol/water) [2, 5]: 3.00
Volatility (μg/l air) [1, 5]: 4.86 μg/l air

CC1CC(C)(C)OC(Cc2ccccc2)O1 (centres unmarked)
Volatility [1, 3]: 29.99 μg/l air

COC(=O)C1C(C)=CCCC1(C)C (racemic)
Volatility [1, 3]: 2010.91 μg/l air

CC(=O)/C=C/C1C(C)=CCCC1(C)C (racemic)
logP (physchem): 4.06
Volatility [1, 3]: 68.11 μg/l air

CCCCCCOC(=O)CCCCC [HEXYL HEXANOATE]
logP (physchem; n-octanol/water): 5.56
Volatility (μg/l air) [1, 4]: 105.52 μg/l air

C/C=C(\C)C(=O)OCC/C=C\CC
logP (physchem; n-octanol/water): 3.96
Volatility [1, 3]: 168.78 μg/l air

C/C=C/C(=O)C1=C(C)C=CCC1(C)C
logP (physchem; n-octanol/water): 3.27
Volatility (μg/l air) [1, 4]: 119.10 μg/l air and 91.38 μg/l air
Volatility (μg/l air) [1, 5]: 91.38 μg/l air
